{"source": "patent US20190350955A1", "about": "“METHODS AND PHARMACEUTICAL COMPOSITIONS FOR THE TREATMENT OF CARDIOMYOPATHIES” (INSERM (Institut National de la Sante et de la Recherche …, priority 2016, published 2019)", "type_in_all_cases": "in vivo, mouse", "key": {"[1]": {"tested_on": "SRF^HKO mice", "experiment": "RT-qPCR gene expression in SRF HKO heart", "text": "(§1) Transgenic mice. All experiments with animals conformed to the Directive 2010/63/EU of the European Parliament and were approved by the ethics committee Charles Darvin #5 (agreement 00369.01). SRF^HKO mice bear the tamoxifen-inducible α-MHC-MerCrMer transgene and the Siffloxed allele (Sf/Sf) as described previously (Parlakian et al. (2005). Temporally controlled onset of dilated cardiomyopathy through disruption of the SRF gene in adult heart. Journal 112, 2930-2939; Tritsch et al. (2013). An SRF/miR-1 axis regulates NCX1 and Annexin A5 protein levels in the normal and failing heart. Journal 98, 372-380). Transgenic mice have been bred for more than 20 generations in C57BL/6N background. The mice were housed in standard animal facility (CEF. Hôpital Pitié Salpétrière, agreement A-75-13-15, 75013 Paris), under a 12-h dark/light cycle. Tamoxifen (Sigma T5648) was administrated by i.p. injection at a dose of 0.7 mg diluted in 100 μl peanut oil at day (D) 0, D1 and D2. (Sf/Sf) littermates injected with tamoxifen at the same time than mutant were used as controls.\nNicotinamide and nicotinamide riboside i.p. administration. Nicotinamide was diluted in saline at 300 mM. Nicotinamide riboside (NR) bromide salt stock solution (1M) was in 10 mM citric acid pH 6.0. For injection 3 volumes of NR stock solution was mixed extemporaneously with 7 volumes of PBS to obtain a 300 mM injectable solution at pH 7.2. Mice were injected daily at a dose of 1 μmole/g body weight.\n(§2) SRF^HKO and control (Sf/Sf) mice were administered either rodent maintenance SAFE A04 diet containing 3.10% crude fat. 16.10% crude proteins. 26% starch and 1.9% sugar (Scientific Animal Food Engineering, Paris, France) or SAFE # A04 diet supplemented with NR. NR was provided by Chromadex under brand name NIAGEN (Irvine Calif. USA). The soft pellets were manually prepared every 5 days by mixing 1.65 g of NR into 500 g of powdered SAFE A04 diet and 235 ml of water to reach 2.24 mg of NR/g (wet weight). Control diet was prepared in the same way omitting NR. Mice had ad libitum access to food and water. Mice (average body weight 31.3±0.82 g, no difference between groups) consumed an average of 6 g of soft food per day, reaching a daily intake of 450 mg NR/kg. No difference in food intake was observed between SRF^HKO and control mice.\ncDNAs were reverse transcribed from RNA (1.5 μg) extracted in TRIzol (Thermofisher) from cell cultures and tissues using the Superscript II Reverse Transcriptase (Life Technologies). Quantitative PCR was carried out on a Light Cycler 480 (Roche Diagnostics) using Fast Start SYBR Green Master (Roche Diagnostics). Quantification of gene expression was calculated as R=2^ΔCt(Ref Cp−target Cp), with Hprt used as a as reference. Primers were designed using the NCBI Primer-BLAST software. Primer sequences are available on request."}, "[2]": {"tested_on": "SRF^HKO mice", "experiment": "Echocardiography of SRF HKO mice on NR diet", "text": "as §1, §2\nEchocardiography was performed on lightly anesthetized mice given isoflurane (induction with 2% isoflurane 100% O2. and maintained with 0.5% isoflurance 100% O2). Non-invasive measurements of left ventricular dimensions were evaluated using Doppler echocardiography (Vivid 7 Dimension/Vivid7 PRO; GE Medical Systems) with a probe ultrasound frequency range of 9-14 MHz. The two-dimensionally guided time-motion recording mode (parasternal long-axis view) of the left ventricle (LV) provided the following measurements: diastolic and systolic septal (IVS) and posterior wall thicknesses (LVPW); internal end-diastolic (LVEDD) and end-systolic diameters (LVESD); and heart rate. Each set of measurements was obtained from the same cardiac cycle. At least 3 sets of measurements were obtained from 3 different cardiac cycles. LV fractional shortening (FS) was calculated using the formula: (LVEDD−LVESD)/LVEDD×100. LV myocardial volume (LVV), LV end-diastolic volume (EDV), and end-systolic volume (ESV) were calculated using a half-ellipsoid model of the LV. From these volumes, LV ejection fraction (EF) was calculated using, the formula: (EDV−ESV)/EDV×100. H/R ratio was calculated by the formula (PWThd+IVSThd)/LVEDd."}, "[3]": {"tested_on": "control mice", "experiment": "Echocardiography of control (Sf/Sf) mice on NR diet", "details": "D45 to D47", "text": "as §1, with “The mice were housed in standard animal facility (CEF. Hôpital Pitié Salpétrière, agreement A-75-13-15, 75013 Paris), under a 12-h dark/light cycle. Tamoxifen (Sigma T5648) was administrated by i.p. injection at a dose of 0.7 mg diluted in 100 μl peanut oil at day (D) 0, D1 and D2. (Sf/Sf) littermates injected with tamoxifen at the same time than mutant were used as controls.” left out\nEchocardiography was performed on lightly anesthetized mice given isoflurane (induction with 2% isoflurane 100% O2. and maintained with 0.5% isoflurance 100% O2). Non-invasive measurements of left ventricular dimensions were evaluated using Doppler echocardiography (Vivid 7 Dimension/Vivid7 PRO; GE Medical Systems) with a probe ultrasound frequency range of 9-14 MHz. […] LV fractional shortening (FS) was calculated using the formula: (LVEDD−LVESD)/LVEDD×100. LV myocardial volume (LVV), LV end-diastolic volume (EDV), and end-systolic volume (ESV) were calculated using a half-ellipsoid model of the LV. From these volumes, LV ejection fraction (EF) was calculated using, the formula: (EDV−ESV)/EDV×100. […]"}, "[4]": {"details": "NR diet, echocardiography D45 to D47"}}}
{"smiles": "NC(=O)c1ccc[n+]([C@@H]2O[C@H](CO)[C@@H](O)[C@H]2O)c1", "note": "[NR, nicotinamide riboside]", "values": [{"measurement": "expression level of the NADPH oxidase gene Nox4", "setting": "[1]; NR diet, heart of SRF HKO mice", "result": "increased"}, {"measurement": "expression level of the Nfel2 gene encoding NRF2 and its target gene metallothionein 2", "setting": "[1]; NR diet, heart of SRF HKO mice", "result": "increased"}, {"measurement": "expression level of G6pdx", "setting": "[1]; SRF HKO mice under the NR diet", "result": "maintained at higher level than in controls"}, {"measurement": "Srf and Nmrk2 expression levels", "setting": "[1]; i.p. administration from D8 to D15", "result": "not changed"}, {"measurement": "LV ejection fraction (LVEF)", "setting": "[2]; NR diet 0.22% from D5, echocardiography D45 to D47, ± S.D, non-treated SRF HKO 48.1, control mice 73.5", "result": "64.8%±8.2"}, {"measurement": "LV contractile functions (LVEF and FS)", "setting": "[2]; NR diet, D45 to D47", "result": "clearly protected"}, {"measurement": "changes in stroke volume or cardiac output", "setting": "[2]; NR diet, D45 to D47", "result": "not significant"}, {"measurement": "dilatation of LV in systole and diastole", "setting": "[2]; NR diet, D45 to D47", "result": "fully protected"}, {"measurement": "reduction of the H/R ratio (eccentric remodeling)", "setting": "[2]; NR diet, D45 to D47", "result": "fully prevented"}, {"measurement": "thinning of the LV wall in systole and diastole", "setting": "[2]; NR diet, D45 to D47, more efficiently at posterior wall than interventricular septum", "result": "reduced the thinning"}, {"measurement": "LV mass index", "setting": "[2]; [4]", "result": "did not induce any change"}, {"measurement": "heart rate", "setting": "[2]; [4]", "result": "did not induce any change"}, {"measurement": "H/R ratio", "setting": "[3]", "result": "slightly increased"}]}
